Tests used:
[1] = test system: MMP-low and MMP-high LSK cells; assay: Metabolic assays (Seahorse OCR and ECAR); type: cell-based, mouse; conditions: ConA 40 nM, 18 hours
Description: Metabolic Assays. Oxygen consumption rates (“OCR”) and extracellular acidification rates (“ECAR”) were measured using a 96-well Seahorse Bioanalyzer XF 96 according to manufacturer's instructions using Seahorse Mito Stress Test or Glycolysis Stress Test kit (Agilent Technologies). In brief, MMP-low and MMP-high LSK cells isolated from a pool of at least 11 mice (40,000 cells per well) were sorted and treated with or without ConA (40 nM) for 18 hours in StemSpan media with SCF (10 ng/mL) and TPO (20 ng/mL). Cells were washed and suspended in XF basic medium with 11 mM glucose, 1 mM sodium pyruvate and 2 mM glutamine (pH 7.4 at 37° C.). The injection port A on the sensor cartridge was loaded with […] oligomycin (Oligo), 2 mM FCCP was loaded into port B and 0.5 mM rotenone/antimycin (ROT/AA) A was loaded into port C. During sensor calibration, the cells were incubated in the 37° C. non-CO2 incubator. The plate was immediately placed onto the calibrated XF96 extracellular flux analyzer for the Mito Stress Test. For the glycolysis stress test, cells were suspended in XF basic medium in 1 mM glutamine (pH 7.4 at 37° C.). The injection port A on the sensor cartridge was loaded with 10 mM glucose. Then, 2 mM oligomycin was loaded into port B and 50 mM 2-DG into port C. During sensor calibration, cells were incubated in the 37° C. non-CO2 incubator. The plate was immediately placed in the calibrated XF96 extracellular flux analyzer for the glycolysis stress test.

[2] = test system: MMP-low and MMP-high HSCs; assay: Lysosome acidity (LysoTracker green, LysoSensor blue); type: cell-based, mouse; conditions: ConA 40 nM, 5 hours
Description: To test lysosome acidity in MMP-low and MMP-high HSCs, FACS-sorted MMP-low and MMP-high HSCs were incubated in Stem-Span media with SCF (10 ng/mL) and TPO (20 ng/mL) or amino acid free medium (starvation) containing ConA (40 nM) or DMSO control for 5 hr; and then cells were incubated with […] Lysotracker green (LTR) or 1mM Lysosensor Blue diluted in above medium for 30 min (37° C., 5% CO2). Cells were rapidly washed with warm PBS (37° C.) three times, mounted and images were captured using a Zeiss LSM880 confocal microscope using a 40× objective (N.A. 1.4).

[3] = test system: MMP-low and MMP-high LT-HSCs transplanted into lethally irradiated mice; assay: Competitive in vivo long-term reconstitution assay after ex vivo lysosomal inhibition; design: species or system mouse
Description: Competitive In Vivo Long-Term Reconstitution Assay: MMP-low and MMP-high HSCs (LSKCD150^+CD48^−, LT-HSC; MMP^low/high) were FACS purified from CD45.1 mice and transplanted at the indicated dose of test cells with 2×10^5 CD45.2 bone marrow cells into lethally irradiated CD45.2 recipients (12 Gy as a split dose, 6.5 and 5.5 Gy, 4 hours apart). Donor (CD45.1) and recipient (CD45.2) mice were 8-12 weeks old. HSC frequency was determined by the limiting dilution assay (Hu & Smith, “ELDA: Extreme Limiting Dilution Analysis for Comparing Depleted and Enriched Populations in Stem Cell and Other Assays,” J. Immunol. Methods 347:7 0-78 (2009), which is hereby incorporated by reference in its entirety) based on the number of mice with […] reconstitution (CD45.1) at 16 weeks.
To assay the effect of HSC lysosomal inhibition in a in vivo competitive long-term reconstitution assay: FACS-sorted MMP-low and -high LT-HSCs (CD45.1) were treated with Concanamycin A (ConA,40 nM) or DMSO control in 96 well plates containing StemSpan with SCF (100 ng/ml) and TPO (20 ng/ml) for 4 days, after which 50 cells from each group were mixed with 2×10^5 CD45.2 total bone marrow cells and injected into lethally irradiated CD45.2 recipients and reconstituted peripheral blood was monitored up to four months.

[4] = test system: MMP-low and MMP-high HSCs; assay: Glucose uptake assay (2NBDG); type: cell-based, mouse; conditions: ConA (25 nM, 50 nM), 18 hours
Description: Glucose Uptake Assay: For measurement of glucose uptake, freshly FACS-purified MMP-low and MMP-high HSCs (at least 2,000 cells pooled in average from 8 mice) were cultured immediately in […] of glucose, glutamine, pyruvate free medium containing 100 or 200 μM 2-(n-(7-nitrobenz-2-oxa-1,3-diazol-4-yl amino)-2-deoxyglucose (2-NBD-Glucose, 2NBDG) for 2 hours. Cells were then washed multiple times in PBS, re-suspended in PBS containing 1 μg/ml DAPI, and analyzed by flow cytometry for 2-NBD glucose fluorescence in the FITC channel. In some experiments cells were cultured in StemSpan medium (StemCell Technology) supplemented with SCF (100 ng/ml) and TPO (20 ng/ml), treated with or without STF-31 ([…]), ConA (25, 50 nM), dimethyl alpha ketoglutarate (MOG, 1 mM), methyl pyruvate (MP, 1 mM) or DMSO, incubated at 37° C. in a humidified atmosphere with 5% CO2 for 6 or 18 hours before removing culture medium from each well, washing extensively and adding […] of glucose, glutamine, pyruvate free medium containing […] of 2 NBDG for 2 hours before washing cells multiple times in PBS and analyzing by flow cytometry. Quantification of 2NBDG uptake was measured by the geometric mean fluorescence intensity (“MFI”) as well as % of 2NBDG^+ cells.

[5] = test system: aged MMP-low and -high LT-HSCs transplanted into lethally irradiated mice; assay: Long-term in vivo competitive repopulation assay of aged HSCs after ex vivo ConA; design: species or system mouse
Description: FIGS. 21A-21C show repression of lysosomal activity ex vivo greatly improves in vivo competitive repopulation of old HSCs. FIG. 21A is a schematic of long-term in vivo competitive repopulation assay. FACS-sorted (5000) aged MMP-low and -high (CD45.2) long-term (LT) HSCs were cultured in vitro in DMSO control or Con A (40 nM) for 4 days after which 100 cells from each group were injected into lethally irradiated recipient (CD45.1) mice along with 2×10^5 CD45.1 total bone marrow competitor cells (n=7). FIG. 21B is a graph showing contribution of donor-derived (CD45.2) cells to the peripheral blood (PB) of primary recipient mice (CD45.1) in a long-term competitive repopulation assay. FIG. 21C is a graph showing lineage output as a percentage of total CD45.2 donor-derived cells in primary recipients. Data expressed as Mean±SEM (**P<0.01, ***P<0.001). Note only ConA-treated old HSCs and not control-treated HSCs generate over 1% chimerism in transplanted animals after 21 weeks.

[6] = ConA 40 nM ex vivo 4 days, 50 cells transplanted

SMILES: C/C=C/[C@H]1O[C@@](O)([C@@H](C)[C@H](O)[C@H](C)[C@H]2OC(=O)/C(OC)=C/C(C)=C/[C@@H](C)[C@@H](O)[C@@H](CC)[C@@H](O)[C@H](C)C/C(C)=C/C=C/[C@@H]2OC)C[C@@H](O[C@H]2C[C@@H](O)[C@H](OC(N)=O)[C@@H](C)O2)[C@@H]1C [ConA, concanamycin A]
- glycolysis (ECAR) in MMP-high and MMP-low HSPCs [1]: collapsed glycolysis
- oxygen consumption in MMP-low HSPCs [1]: only a relatively small effect
- oxygen consumption in primed (MMP-high) HSPCs [1]: drastically decreased oxygen consumption
- lysosomal acidity [2]: reduced
- blood production in secondary transplants ([3]; 38 weeks post-initial transplantation): increased balanced blood production
- production of lineages downstream of MMP-high HSCs ([3]; ConA 40 nM ex vivo 4 days): balanced the production of lineages
- increase of in vivo competitive repopulation ability, MMP-high HSCs [3, 6]: over 90 fold
- increase of in vivo competitive repopulation ability, MMP-low HSCs [3, 6]: 9 fold
- HSC self-renewal in secondary transplantations ([3]; young HSCs, ex vivo ConA): increased HSC self-renewal
- decrease of glucose uptake in MMP-high HSCs [4]: 19 fold
- effect on reducing the viability under the glucose uptake condition [4]: mostly restricted to MMP-high and subtle in MMP-low HSCs
- lineage output of aged MMP-high HSCs ([5]; 4-day cultured, Con A 40 nM): balanced their lineage output
- competitive repopulation ability of aged MMP-high HSCs ([5]; 4-day cultured, Con A 40 nM, 100 cells): remarkably improved
- self-renewal of old HSCs and their balance blood production ([5]; ex vivo ConA treatment (FIG. 19 and FIG. 20)): improves significantly
- self-renewal of aged HSCs in secondary transplants ([5]; mice receiving control-treated HSCs died): improved self-renewal in secondary transplants
- survival of recipients in secondary transplantation ([5]; old HSCs, 4-day ex vivo ConA, not control-treated): survive in secondary transplantation
- chimerism in transplanted animals ([5]; old HSCs, after 21 weeks, control-treated HSCs do not): over 1%

Reference: patent US20220243177A1, “METHODS OF CULTURING QUIESCENT HEMATOPOIETIC STEM CELLS AND TREATMENT METHODS” (priority 2019, published 2022)
